Test system: RpGS1
Settings: read-out: RpGS1; 0.5-15 mM sodium glutamate; ATP, hydroxylamine, Mg2+ in solution B pH 7.4; 37 C; called purified in the discussion, methods describe protein released by ultrasonication

Km: 580 µM
Structure (SMILES): N[C@@H](CCC(=O)O)C(=O)O [sodium glutamate]

Source: publication PMC12216525, “Characterization of glutamine synthetase involved in the fecundity of Rhopalosiphum padi” (Scientific Reports, 2025)
